From patent US8129403B2, “Chemical compounds” (AstraZeneca AB, priority 2005, dated 2012)

target: T1, human Trk A kinase (Homo sapiens, UniProt P04629); test: Trk A Assay (Alphascreen kinase assay); assay type: biochemical; details: intracellular domain of HIS-tagged human Trk A, 70 μM ATP, PolyEY-biotin substrate, 20 minutes room temperature; read-out: IC50 (μM), Trk inhibitory activity
T1 construct: HIS tag; made in house; host or cells: SF9 insect cells
Description: Trk A kinase activity was measured for its ability to phosphorylate synthetic tyrosine residues within a generic polypeptide substrate using an Amplified Luminescent Proximity Assay (Alphascreen) technology (PerkinElmer, 549 Albany Street, Boston, Mass.).
To measure Trk A kinase activity, the intracellular domain of a HIS-tagged human Trk A kinase (amino acids 442-796 of Trk A, Swiss-Prot Primary Accession Number P04629) was expressed in SF9 cells and purified using standard nickel column chromatography. After incubation of the kinase with a biotinylated substrate and adenosine triphosphate (ATP) for 20 minutes at room temperature, the kinase reaction was stopped by the addition of 30 mM ethylenediaminetetraacetic acid (EDTA). The reaction was performed in 384 well microtitre plates and the reaction products were detected with the addition of strepavidin coated Donor Beads and phosphotyrosine-specific antibodies coated Acceptor Beads using the EnVision Multilabel Plate Reader after an overnight incubation at room temperature.

T1 sequence (P04629 442-796): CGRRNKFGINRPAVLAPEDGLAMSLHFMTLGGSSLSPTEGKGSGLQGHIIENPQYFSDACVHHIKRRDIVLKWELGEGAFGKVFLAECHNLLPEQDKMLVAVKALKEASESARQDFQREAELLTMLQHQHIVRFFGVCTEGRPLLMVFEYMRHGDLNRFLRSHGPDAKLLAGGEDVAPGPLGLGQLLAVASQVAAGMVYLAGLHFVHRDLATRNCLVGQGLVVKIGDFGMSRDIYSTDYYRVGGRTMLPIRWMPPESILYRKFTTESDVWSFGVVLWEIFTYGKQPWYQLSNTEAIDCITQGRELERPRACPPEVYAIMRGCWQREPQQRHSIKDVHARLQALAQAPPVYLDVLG

Question: How did the IC50 turn out when Fc1ccc(CNc2ncc3ncn(-c4cc(C5CC5)[nH]n4)c3n2)cc1 [Example 4, 9-(5-Cyclopropyl-1H-pyrazol-3-yl)-N-(4-fluorobenzyl)-9H-purin-2-amine] was run?
Answer: 0.02 µM

Question: Fc1ccc(CNc2ccc3ncn(-c4cc(C5CC5)[nH]n4)c3n2)cc1 [Example 14, N-(4-Fluorobenzyl)-3-(5-cyclopropyl-1H-pyrazol-3-yl)-3H-imidazo[4,5-b]pyridin-5-amine] was tested. Which IC50 did it give?
Answer: 0.022 µM

Question: With Fc1ccc(CNc2ccc3ncn(-c4cc(C5CC5)[nH]n4)c3c2)cc1 [Example 29, N-(4-Fluorobenzyl)-3-(5-cyclopropyl-1H-pyrazol-3-yl)-3H-benzo[d]imidazol-5-amine] as the molecule, how does the IC50 read?
Answer: 0.015 µM
